{
  "source": "patent US12208122B2",
  "about": "“Methods of treating bleeding in a subject treated with an antiplatelet agent” (Cellphire, Inc., priority 2019, dated 2025)",
  "key": {"[1]": {"system": "platelets (platelet rich plasma)", "experiment": "Transmission light aggregometry, arachidonic acid-induced platelet aggregation in PRP", "format": "cell-based, human", "source_text": "(§1) Platelets will aggregate with collagen and arachidonic acid stimulation. […] The PL chip system on the T-TAS® was used to emulate in vitro platelet binding and aggregation due to the exposure of collagen in the vasculature under shear conditions.\nPlasma samples with platelet or thrombosomes or combination of both are loaded into cuvettes and placed into the aggregometry chambers. The chambers warm the sample and provide constant stirring. The initiation of aggregation can be done by multiple types of […] agents not limited to thrombin, ADP, collagen and any agent known to stimulate platelet aggregation. […] The instrument begins the assay by first recording the light transmission previous to stimulation for 2 minutes. The stimulant of interest is then introduced by the technician and the change in light transmission is recorded over time. The increase in light transmission corresponds to increase in platelet aggregation.\nPlatelet rich plasma was taken from subject on 800 mg ibuprofen."}, "[2]": {"system": "platelets (platelet rich plasma)", "experiment": "Transmission light aggregometry, collagen-induced platelet aggregation in PRP", "format": "cell-based, human", "procedure": "The aggregation of platelets (in platelet rich plasma) was evaluated using transmission light aggregrometry. […] (FIG. 8).\nas §1\n(§2) Plasma samples with platelet or thrombosomes or combination of both are loaded into cuvettes and placed into the aggregometry chambers. The chambers warm the sample and provide constant stirring. The initiation of aggregation can be done by multiple types of […] agents not limited to thrombin, ADP, collagen and any agent known to stimulate platelet aggregation. The samples can also have been taken as ex-vivo, or in-vitro supplemented with inhibitors. The instrument begins the assay by first recording the light transmission previous to stimulation for 2 minutes. The stimulant of interest is then introduced by the technician and the change in light transmission is recorded over time. The increase in light transmission corresponds to increase in platelet aggregation."}, "whole blood [3]": {"system": "whole blood", "experiment": "T-TAS PL chip (collagen only) thrombus formation, whole blood", "format": "cell-based, human", "conditions": "whole blood with 100 and 500 μM aspirin; FIG. 17", "source_text": "(§3) In the Total Thrombus-formation Analysis System (T-TAS®, FUJIMORI KOGYO CO., LTD), the sample is forced through collagen-coated microchannels using mineral oil. Changes in pressure are used to assess thrombus formation. The Occlusion Start Time is time it takes to reach 10 kPa, and the Occlusion Time=time it takes to each Δ80 kPa using an AR chip (e.g., Zacros Item No, TC0101). According to the manufacturer, an AR chip can be used for analyzing the formation of a mixed white thrombus consisting chiefly of fibrin and activated platelets. It has a flow path (300 μm wide by 50 μm high) coated with collagen and tissue factors and can be used to analyze the clotting function and platelet function. In comparison, a PL chip can be used for analyzing the formation of a platelet thrombus consisting chiefly of activated platelets. A PL chip has a flow path coated with collagen only and can be used to analyze the platelet function.\nas §1\nEvaluation by T-TAS® Using a PL Chip\nPL chips are run similarly to AR chips, but this chip is only coated with collagen alone."}, "platelet rich plasma [4]": {"system": "platelet rich plasma", "experiment": "T-TAS AR chip (collagen and tissue factor) occlusion under shear, platelet rich plasma", "format": "cell-based, human"}, "[5]": {"system": "platelets (platelet rich plasma)", "experiment": "Transmission light aggregometry, ADP-induced platelet aggregation in PRP", "format": "cell-based, human", "conditions": "cangrelor 0.5 μM-3.5 μM, 10 μM ADP, FIG. 1", "source_text": "as §2"}, "platelet rich plasma [6]": {"system": "platelet rich plasma", "experiment": "T-TAS AR chip (collagen and tissue factor) occlusion under shear, platelet rich plasma", "format": "cell-based, human", "conditions": "for area under the curve (AUC): FIG. 3; for time to occlusion: FIG. 4", "source_text": "as §3\nThe effect of cangrelor on platelet occlusion under shear was evaluated by T-TAS®.\nEvaluation by T-TAS® using an AR chip. AR chips are characterized by a single channel containing collagen and tissue factor; they can be used to analyze clotting and platelet function."}, "NOD/SCID mice": {"system": "NOD/SCID mice", "experiment": "Tail-snip bleed model in clopidogrel-treated NOD/SCID mice", "format": "in vivo, mouse", "conditions": "~3 times the clinical dose of clopidogrel for 5 days (untreated 9 minutes)", "procedure": "The mouse was treated with clopidogrel for 5 days. The mouse was anesthetized, the tail end was snipped off followed by thrombosomes being immediately administered. The time from tail snip to tail stop bleeding was recorded by visual inspection.\nNOD/SCID mice were treated with ˜ 3 times the clinical dose of clopidogrel for 5 days then assessed in the tail-snip bleed model. The bleed time (min) was extended to 17.8 minutes with clopidogrel treatment verses untreated at 9 minutes (data not shown)."}, "platelets": {"system": "platelets", "conditions": "cited from earlier work"}, "whole blood [7]": {"system": "whole blood", "experiment": "T-TAS AR chip occlusion under shear, whole blood", "format": "cell-based, human", "conditions": "whole blood with 6 μM eptifibatide (whole blood alone 8 minutes); FIG. 9", "source_text": "as §3\nThe effect of thrombosomes on shortening clotting times while in the presence of eptifibatide was also studied. The ability of thrombosomes to recover occlusion times was studied on the T-TAS® system. The T-TAS® system measures occlusion time under shear forces with collagen and thromboplastin stimulation. The whole blood profile of occlusion and AUC on the AR T-TAS® chip lengthened and decreased, respectively, with eptifibatide. […]"}},
  "note": "Read-outs that look alike come from different tables or passages of the source. Where a SMILES comes first, the peptide text is derived from it. Bridges are numbered along the chain shown (N, C = ends). [ ]: non-standard residue; d: D form. hArg = N=C(N)NCCCC[C@H](N)C(=O)O; Mpa = O=C(O)CCS",
  "data": [
    {"compound": "CC(=O)Oc1ccccc1C(=O)O", "note": "[aspirin, acetylsalicylic acid]", "values": [
      {"measurement": "arachidonic acid-induced platelet aggregation", "setting": "[1]; AA 500 ug/mL, aspirin 100-400 μM, PRP, FIG. 16", "value": "completely inhibited"},
      {"measurement": "collagen-induced platelet aggregation", "setting": "[2]; collagen 10 ug/mL, aspirin 100-400 μM, FIG. 16", "value": "partially inhibited"},
      {"measurement": "platelet binding and aggregation on collagen under shear (PL chip)", "setting": "whole blood [3]", "value": "largely limited"},
      {"measurement": "occlusion on T-TAS flow system", "setting": "platelet rich plasma [4]; PRP taken from a subject on 81 mg/day aspirin, FIGS. 29A, 29B", "value": "failed to occlude"}
    ]},
    {"compound": "CSCCNc1nc(SCCC(F)(F)F)nc2c1ncn2[C@@H]1O[C@H](COP(=O)(O)OP(=O)(O)C(Cl)(Cl)P(=O)(O)O)[C@@H](O)[C@H]1O", "note": "[cangrelor]", "values": [
      {"measurement": "ADP-induced platelet aggregation (integrated aggregation curve)", "setting": "[5]", "value": "complete inhibition"},
      {"measurement": "occlusion time", "setting": "platelet rich plasma [6]; PRP treated with 100 ng/mL cangrelor and ADP (from 19), FIGS. 25A, 25B", "value": 26, "unit": "min"},
      {"measurement": "platelet adhesion and occlusion on AR chip", "setting": "platelet rich plasma [6]; cangrelor 1 μM combined with ADP 10 μM, PRP, FIG. 2", "value": "essentially eliminated"},
      {"measurement": "platelet occlusion on AR chip", "setting": "platelet rich plasma [6]; cangrelor alone 1 μM, PRP, FIG. 2", "value": "did not exhibit inhibition on occlusion"},
      {"measurement": "area under the curve (AUC)", "setting": "platelet rich plasma [6]; cangrelor alone, PRP", "value": "little effect on AUC value"},
      {"measurement": "time to occlusion", "setting": "platelet rich plasma [6]; cangrelor alone, PRP", "value": "little effect on occlusion times"},
      {"measurement": "area under the curve (AUC)", "setting": "platelet rich plasma [6]; cangrelor combined with ADP stimulation, PRP", "value": "dropped close to zero"},
      {"measurement": "time to occlusion", "setting": "platelet rich plasma [6]; cangrelor plus ADP stimulation, PRP", "value": "inhibited occlusion essentially completely"}
    ]},
    {"compound": "COC(=O)[C@H](c1ccccc1Cl)N1CCc2sccc2C1", "note": "[clopidogrel]", "values": [
      {"measurement": "bleed time", "setting": "NOD/SCID mice", "value": 17.8, "unit": "min"},
      {"measurement": "time to return of platelet function", "setting": "platelets; after stopping infusion", "value": "approximately 1 hour"}
    ]},
    {"compound": "N=C(N)NCCCC[C@@H]1NC(=O)CCSSC[C@@H](C(N)=O)NC(=O)[C@@H]2CCCN2C(=O)[C@H](Cc2c[nH]c3ccccc23)NC(=O)[C@H](CC(=O)O)NC(=O)CNC1=O", "note": "[eptifibatide] ([Mpa][hArg]GDWPC-NH2; disulfide 1-7)", "values": [
      {"measurement": "collagen-induced platelet aggregation", "setting": "[2]; collagen 10 μg/mL, all eptifibatide concentrations tested, FIG. 8", "value": "completely inhibited"},
      {"measurement": "time for bleeding time to return to normal after drug stoppage", "setting": "platelets; after drug stoppage", "value": "≤ 1", "unit": "h"},
      {"measurement": "occlusion time", "setting": "whole blood [7]", "value": 16, "unit": "min"},
      {"measurement": "occlusion time", "setting": "platelet rich plasma [4]; PRP treated with 9 μM eptifibatide (from 18.43), FIGS. 27A, 27B", "value": "over 30 minutes"}
    ]},
    {"compound": "CC(C)Cc1ccc(C(C)C(=O)O)cc1", "note": "(centres unmarked) [ibuprofen]", "values": [
      {"measurement": "aggregation in response to arachidonic acid", "setting": "[1]; PRP from subject on 800 mg ibuprofen, FIG. 31A", "value": "lack of aggregation"},
      {"measurement": "occlusion on T-TAS flow system", "setting": "platelet rich plasma [4]; PRP from subject on 800 mg ibuprofen, addition of ADP, FIG. 31B", "value": "abolished occlusion"},
      {"measurement": "occlusion on T-TAS flow system", "setting": "platelet rich plasma [4]; PRP from subject on 800 mg ibuprofen, no ADP, FIG. 31B", "value": "demonstrated occlusion"}
    ]},
    {"compound": "CCCSc1nc(N[C@@H]2C[C@H]2c2ccc(F)c(F)c2)c2nnn([C@@H]3C[C@H](OCCO)[C@@H](O)[C@H]3O)c2n1", "note": "[ticagrelor]", "values": [
      {"measurement": "time to return of platelet function", "setting": "platelets; after the last dosage", "value": "approximately 72 hours"}
    ]},
    {"compound": "CCCCS(=O)(=O)N[C@@H](Cc1ccc(OCCCCC2CCNCC2)cc1)C(=O)O", "note": "[tirofiban]", "values": [
      {"measurement": "occlusion time", "setting": "platelet rich plasma [4]; PRP treated with 100 ng/mL tirofiban (from 18.43), FIGS. 26A, 26B", "value": "no occlusion"}
    ]}
  ]
}
